From patent US10429384B2, “Compositions, kits, and methods for identification, assessment, prevention, and therapy of metabolic disorders” (Dana-Farber Cancer Institute, Inc., priority 2010, dated 2019)
“Also recorded” adds a separate entry of the source.

Assays:
[1] = target: T1, wild type PPAR gamma (cdk5-mediated phosphorylation) (Mus musculus, UniProt P37238); experiment: TNF-α-induced phosphorylation of PPAR gamma in 3T3-L1 adipocytes expressing wild type PPAR gamma; format: cell-based; settings: combined with rosiglitazone, FIG. 5A
T1 construct: expressed in transfected cells; host or cells: 3T3-L1 adipocytes
T1 sequence (P37238 1-505): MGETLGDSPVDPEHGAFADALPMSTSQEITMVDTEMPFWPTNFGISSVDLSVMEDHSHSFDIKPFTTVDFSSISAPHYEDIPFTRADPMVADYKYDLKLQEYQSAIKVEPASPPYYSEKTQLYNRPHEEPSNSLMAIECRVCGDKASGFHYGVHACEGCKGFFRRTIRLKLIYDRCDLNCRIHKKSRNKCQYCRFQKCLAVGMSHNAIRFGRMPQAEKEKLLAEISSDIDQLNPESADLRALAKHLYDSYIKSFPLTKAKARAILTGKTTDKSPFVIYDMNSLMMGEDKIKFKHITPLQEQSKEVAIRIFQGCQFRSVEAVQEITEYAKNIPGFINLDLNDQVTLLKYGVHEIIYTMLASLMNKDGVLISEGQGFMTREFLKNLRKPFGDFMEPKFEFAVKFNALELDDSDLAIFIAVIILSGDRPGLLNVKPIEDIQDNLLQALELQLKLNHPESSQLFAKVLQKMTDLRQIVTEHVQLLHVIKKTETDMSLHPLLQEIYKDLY
Procedure: HEK-293 cells expressing CDK5 or PPAR gamma were collected after transfection. Total cell lysates were incubated with FLAG M2 agarose (Sigma) at 4° C. Immunoprecipitates or total cell lysates were analyzed with anti-CDK substrate, FLAG or HA (Roche) antibodies. Differentiated 3T3-L1 adipocytes were treated with TNF-α (50 ng/ml), IL-6 (50 ng/ml), IL-10 (50 ng/ml) or FFAs (400 μM palmitic acid and oleic acid mixtures) for the indicated times, and cell lysates were analyzed with phospho-specific or PPAR gamma antibodies. 3T3-L1 adipocytes were pre-treated with various PPAR gamma ligands, and incubated with TNF-α. For tissue lysates, WAT from mice was homogenized in RIPA buffer (50 mM Tris pH7.5, 150 mM NaCl, 1% NP-40, 0.5% sodium deoxycholate, 0.1% SDS with protease and phosphatase inhibitors). […] Total tissue lysates were analyzed with anti-PPAR gamma, phospho-CDK5 (Y15), CDK5 and p35 antibodies (Santa Cruz).

[2] = target: T2, cdk5-mediated phosphorylation of PPAR gamma in adipose tissue (Mus musculus, UniProt P37238); experiment: Phosphorylation of PPAR gamma in adipose tissue (WAT) of treated high-fat fed mice; format: in vivo; settings: 10 mg/kg for 7 days, FIG. 9D
T2 construct: For tissue lysates, WAT from mice was homogenized in RIPA buffer; from tissue; host or cells: white adipose tissue of C57BL/6J mice on high fat diet
T2 sequence (P37238 1-505): T1 sequence (P37238 1-505)
Procedure: For tissue lysates, WAT from mice was homogenized in RIPA buffer (50 mM Tris pH7.5, 150 mM NaCl, 1% NP-40, 0.5% sodium deoxycholate, 0.1% SDS with protease and phosphatase inhibitors). […] Total tissue lysates were analyzed with anti-PPAR gamma, phospho-CDK5 (Y15), CDK5 and p35 antibodies (Santa Cruz). Phosphorylation of PPAR gamma on Ser112 or Ser273 was detected by phospho-specific antibodies (Ser112, Millipore, MAB3632).
4 to 5-week old male C57BL/6J mice were obtained from the Jackson Laboratory.

adipogenesis = settings: cited from earlier work
high-fat fed mice = experiment: Glucose tolerance, fasting insulin and body weight in high-fat fed mice; settings: 10 mg/kg for 7 days
Procedure: 4 to 5-week old male C57BL/6J mice were obtained from the Jackson Laboratory. Mice were fed a regular diet (10% kcal fat, D12450B, Research Diets Inc.) or a high fat diet (60% kcal fat, D12492, Research Diets Inc.) as indicated time periods. […] Glucose was measured in tail vain blood at intervals after glucose injection using a Truetrack glucometer. Serum insulin concentrations were determined by ELISA (Crystal Chem).

[3] = target: T3, PPAR gamma (PPAR transcriptional response element) (Mus musculus, UniProt P37238); experiment: Reporter gene assay, PPAR-derived reporter gene in HEK-293 cells; format: cell-based
T3 construct: expressed in transfected cells; host or cells: HEK-293
T3 sequence (P37238 1-505): T1 sequence (P37238 1-505)
T3 sequence (P19793 1-462 partner): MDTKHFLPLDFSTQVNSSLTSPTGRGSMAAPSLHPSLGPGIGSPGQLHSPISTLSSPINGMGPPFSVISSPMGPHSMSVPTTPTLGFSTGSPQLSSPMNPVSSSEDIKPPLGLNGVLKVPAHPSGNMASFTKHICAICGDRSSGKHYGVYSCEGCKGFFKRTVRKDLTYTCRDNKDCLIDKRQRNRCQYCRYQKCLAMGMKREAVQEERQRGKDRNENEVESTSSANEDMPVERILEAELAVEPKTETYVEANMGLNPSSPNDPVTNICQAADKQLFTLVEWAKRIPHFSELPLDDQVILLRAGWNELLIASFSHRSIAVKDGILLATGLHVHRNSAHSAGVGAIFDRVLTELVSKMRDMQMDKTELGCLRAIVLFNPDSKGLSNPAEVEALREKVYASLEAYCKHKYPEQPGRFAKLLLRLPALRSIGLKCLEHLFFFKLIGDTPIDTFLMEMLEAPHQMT
Procedure: In some examples, HEK-293 cells were seeded in 12-well plates at 1.5×10^5 cells/well. HEK-293 cells were transfected with pDR-1 (3×, based on the UCP1 PPAR gamma recognition site)-luciferase reporter plasmid, PPAR gamma, RXRa and pRL-renillin using Lipofectamine 2000 (Invitrogen). […] The cells were harvested and reporter gene assays were carried out using the Dual-Luciferase kit (Promega). Luciferase activity was normalized to renillia activity.

mice [4] = experiment: Whole body oxygen consumption (CLAMS) in treated mice; format: in vivo; settings: 10 mg/kg for 10 days
[5] = system: PPAR gamma-null fibroblasts expressing WT PPAR gamma; experiment: Microarray analysis of differentiated PPAR gamma-null fibroblasts expressing wild type PPAR gamma; format: cell-based, mouse; settings: 1 μM, 24 hours; FIG. 5F
From the text: To create refined gene sets regulated by cdk5 phosphorylation of PPAR gamma, p-value as well as fold-change of gene expression in WT versus S273A mutant cells was first calculated, and—log p-value versus log2 fold-change was plotted.

mice [6] = settings: Acton et al. 2005; cited from earlier work
[7] = target: T4, cdk5-mediated phosphorylation of PPAR gamma (serine 273) (Mus musculus, UniProt P37238); experiment: In vitro CDK5 kinase assay with cdk5/p35 and PPAR gamma as substrate; format: biochemical, murine; settings: FIG. 5B, FIG. 6
T4 construct: FLAG (N); made in house
T4 sequence (P37238 1-505): T1 sequence (P37238 1-505)
Procedure: Kinase assays were performed using an active cdk5/p35 protein and recombinant PPAR gamma protein as a substrate in kinase buffer in the presence of ATP. The reaction was stopped by adding sample buffer. Samples were then subjected to SDS-PAGE, and detected by CDK substrate antibody. In particular, active cdk5/p35, cdk1/cdc2, cdk2/cyclin A, cdk2/cyclin E or cdk4/cyclin D1 kinases were purchased from Millipore or Cell Signaling Technology. In vitro CDK kinase assay was performed according to the manufacturer's instructions (Cell Signaling Technology). […] Positive control for assay, purified histone H1 (Millipore) or Rb (Cell Signaling Technology) were used. Several PPAR gamma ligands were pre-incubated with substrates for 30 min, and the assay was performed. Phosphorylation of substrates after SDS-PAGE was analyzed with anti-CDK substrate antibody (Cell Signaling Technology).

[8] = target: T5, PPAR gamma (TNF-α-mediated phosphorylation) (Mus musculus, UniProt P37238); experiment: TNF-α-induced phosphorylation of PPAR gamma in HEK-293 cells; format: cell-based; settings: 30 nM; FIG. 5E
T5 construct: expressed in transfected cells; host or cells: HEK-293
T5 sequence (P37238 1-505): T1 sequence (P37238 1-505)
Procedure: HEK-293 cells expressing CDK5 or PPAR gamma were collected after transfection. Total cell lysates were incubated with FLAG M2 agarose (Sigma) at 4° C. Immunoprecipitates or total cell lysates were analyzed with anti-CDK substrate, FLAG or HA (Roche) antibodies. Differentiated 3T3-L1 adipocytes were treated with TNF-α (50 ng/ml), IL-6 (50 ng/ml), IL-10 (50 ng/ml) or FFAs (400 μM palmitic acid and oleic acid mixtures) for the indicated times, and cell lysates were analyzed with phospho-specific or PPAR gamma antibodies. 3T3-L1 adipocytes were pre-treated with various PPAR gamma ligands, and incubated with TNF-α. […] Phosphorylation of PPAR gamma on Ser112 or Ser273 was detected by phospho-specific antibodies (Ser112, Millipore, MAB3632).

[9] = target: T6, cdk5 (Rb protein as substrate) (Homo sapiens, UniProt Q00535); experiment: In vitro CDK5 kinase assay with Rb as substrate; format: biochemical; settings: selectivity control
T6 construct: purchased Millipore or Cell Signaling Technology
Procedure: Kinase assays were performed using an active cdk5/p35 protein and recombinant PPAR gamma protein as a substrate in kinase buffer in the presence of ATP. The reaction was stopped by adding sample buffer. Samples were then subjected to SDS-PAGE, and detected by CDK substrate antibody. In particular, active cdk5/p35, cdk1/cdc2, cdk2/cyclin A, cdk2/cyclin E or cdk4/cyclin D1 kinases were purchased from Millipore or Cell Signaling Technology. In vitro CDK kinase assay was performed according to the manufacturer's instructions (Cell Signaling Technology). Briefly, 1 μg of immuno-purified WT or S273A mutant of PPAR gamma were incubated with active CDK kinase in kinase assay buffer (25 mM Tris-HCl pH 7.5, 5 mM beta-glycerophosphate, 2 mM dithiothreitol (DTT), 0.1 mM Na3VO4, 10 mM MgCl2) containing 20 μM ATP for 15 min at 30° C. Positive control for assay, purified histone H1 (Millipore) or Rb (Cell Signaling Technology) were used. Several PPAR gamma ligands were pre-incubated with substrates for 30 min, and the assay was performed. Phosphorylation of substrates after SDS-PAGE was analyzed with anti-CDK substrate antibody (Cell Signaling Technology).

T6 sequence (Q00535 whole entry, species assumed): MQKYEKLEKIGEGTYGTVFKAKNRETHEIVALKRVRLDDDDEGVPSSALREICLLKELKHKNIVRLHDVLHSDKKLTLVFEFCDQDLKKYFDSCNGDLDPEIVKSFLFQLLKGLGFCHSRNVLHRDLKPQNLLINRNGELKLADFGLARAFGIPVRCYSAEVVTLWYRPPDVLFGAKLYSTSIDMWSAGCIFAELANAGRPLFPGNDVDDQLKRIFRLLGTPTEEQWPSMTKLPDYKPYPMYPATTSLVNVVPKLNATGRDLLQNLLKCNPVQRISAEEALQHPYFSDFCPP
T6 sequence (Q15078 whole entry partner, species assumed): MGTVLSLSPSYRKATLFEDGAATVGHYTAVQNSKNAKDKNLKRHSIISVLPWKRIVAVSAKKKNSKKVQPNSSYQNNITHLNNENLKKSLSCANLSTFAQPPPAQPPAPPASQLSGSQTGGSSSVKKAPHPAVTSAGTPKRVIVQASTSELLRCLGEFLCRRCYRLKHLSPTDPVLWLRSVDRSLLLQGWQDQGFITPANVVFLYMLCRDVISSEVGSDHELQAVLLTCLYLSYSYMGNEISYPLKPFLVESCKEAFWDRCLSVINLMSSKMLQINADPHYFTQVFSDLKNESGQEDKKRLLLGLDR

O=C(Nc1ccccc1)c1cc([N+](=O)[O-])ccc1Cl [GW 9662]
effect of antagonist on rosiglitazone inhibition of PPAR gamma phosphorylation [1]: completely blocked this effect of rosiglitazone

COc1ccc(C(=O)n2c(C)c(Cc3cccc(O[C@@H](C)C(=O)O)c3)c3cc(OC(F)(F)F)ccc32)cc1 [MRL24]
cdk5-mediated phosphorylation of PPAR gamma in adipose tissue [2]: reduced the cdk5-mediated phosphorylation of PPAR gamma in the adipose tissue of every mouse | ability to promote adipogenesis (adipogenesis): virtually no ability to promote adipogenesis | fasting insulin levels (high-fat fed mice): reduced fasting insulin levels | glucose tolerance (high-fat fed mice): dramatically improved glucose tolerance | agonist activity on PPAR gamma at 30 nM ([3]; 30 nM, same cells as phosphorylation test): essentially undetectable agonist activity | agonist activity on a PPAR transcriptional response element ([3]; compared to rosiglitazone): very weak agonist activity; also recorded: only a small fraction of the agonist activity of rosiglitazone | whole body oxygen consumption (mice [4]): selectively increase whole body oxygen consumption in vivo | expression of gene cluster "c" (genes increased by the cdk5 site mutation) [5]: corresponded remarkably well to the gene set induced by the mutation in the cdk5 site of PPAR gamma | expression of gene group "a" (genes activated by cdk5 phosphorylation of PPAR gamma) [5]: suppressed | anti-diabetic activity (mice [6]): excellent anti-diabetic activity in mice | blocking of cdk5-mediated phosphorylation of PPAR gamma [7]: very effective at blocking the cdk5-mediated phosphorylation of PPAR gamma | block of TNF-α-mediated phosphorylation of PPAR gamma [8]: blocked the TNF-α-mediated phosphorylation of PPAR gamma essentially completely | inhibition of cdk5 phosphorylation of Rb [9]: retained full ability to phosphorylate Rb

CN(CCOc1ccc(CC2SC(=O)NC2=O)cc1)c1ccccn1 (stereo not drawn) [rosiglitazone]
body weight (high-fat fed mice): without inducing changes in body weight
